Results as given in the supplement of paper PMC10307832.

Legend:
Experiment in all cases: relative viability (nuclei count vs DMSO), 5 days (fraction); higher = more cells survive
[1] = compound: CC1=CC=C(C=C1)C(=O)CN2C3=C(CCCC3)SC2=N [Pifithrin_alpha] + Cc1nc(Nc2ncc(C(=O)Nc3c(C)cccc3Cl)s2)cc(N2CCN(CCO)CC2)n1 [Dasatinib] (partner 0.075 µM)
Summary of the method: (§1)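 Dosing by pin tool came one day after lung cancer cell lines were seeded in 1536-well plates, using either one drug or a fixed anchor-drug dose plus five library-drug doses (not always all listed) in √10 steps. After 5 days, nuclei were counted on 4× images. Relative viability is treated-well nuclei count divided by vehicle-well nuclei count, and values are medians of duplicate plates.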

[2] = compound: CNC(=O)c1ccccc1Sc1ccc2c(/C=C/c3ccccn3)n[nH]c2c1 [Axitinib] + CC(=O)c1c(C)c2cnc(Nc3ccc(N4CCNCC4)cn3)nc2n(C2CCCC2)c1=O [Palbociclib] (partner 0.5 µM)
Summary of the method: as §1

[3] = compound: CNC(=O)c1ccccc1Sc1ccc2c(/C=C/c3ccccn3)n[nH]c2c1 [Axitinib] + CC1(C)CCC(c2ccc(Cl)cc2)=C(CN2CCN(c3ccc(C(=O)NS(=O)(=O)c4ccc(N[C@H](CCN5CCOCC5)CSc5ccccc5)c(S(=O)(=O)C(F)(F)F)c4)cc3)CC2)C1 [Navitoclax] (partner 0.5 µM)
Summary of the method: as §1

[4] = compound: Nc1nc(Nc2ccc3c(c2)CC[C@@H](N2CCCC2)CC3)nn1-c1cc2c(nn1)-c1ccccc1CCC2 [Bemcentinib] + NC(=O)Nc1cc(-c2cccc(F)c2)sc1C(=O)N[C@H]1CCCNC1 [AZD7762] (partner 0.2 µM)
Summary of the method: as §1

Cell Line | relative viability ([1]; first compound 1 µM) | relative viability ([1]; first compound 3.162 µM) | relative viability ([1]; first compound 10 µM) | relative viability ([1]; first compound 31.62 µM) | relative viability ([1]; first compound 100 µM) | relative viability ([2]; first compound 0.005 µM) | relative viability ([2]; first compound 0.01581 µM) | relative viability ([2]; first compound 0.05 µM) | relative viability ([2]; first compound 0.1581 µM) | relative viability ([2]; first compound 0.5 µM) | relative viability ([3]; first compound 0.005 µM) | relative viability ([3]; first compound 0.01581 µM) | relative viability ([3]; first compound 0.05 µM) | relative viability ([3]; first compound 0.1581 µM) | relative viability ([3]; first compound 0.5 µM) | relative viability ([4]; first compound 0.04 µM) | relative viability ([4]; first compound 0.1265 µM) | relative viability ([4]; first compound 0.4 µM) | relative viability ([4]; first compound 1.265 µM) | relative viability ([4]; first compound 4 µM)
201T | 0.47 | 0.337 | 0.431 | 0.392 | 0.399 | 0.376 | 0.361 | 0.335 | 0.351 | 0.343 | 1.21 | 1.18 | 1.18 | 1.27 | 1.23 | 0.643 | 0.668 | 0.605 | 0.611 | 0.625
A549 | – | – | – | – | – | – | – | – | – | – | 1.19 | 1.24 | 1.25 | 1.13 | 1.18 | – | – | – | – | –
A-427 | 0.824 | 0.635 | 0.599 | 0.513 | 0.702 | 0.491 | 0.511 | 0.564 | 0.567 | 0.543 | 0.999 | 1.05 | 0.925 | 0.958 | 1.04 | 0.75 | 0.856 | 0.746 | 0.63 | 0.637
ABC-1 | 0.413 | 0.439 | 0.435 | 0.398 | 0.453 | 0.756 | – | 0.632 | 0.626 | 0.854 | – | – | – | – | – | – | 0.937 | 0.799 | 0.816 | 1.09
BEN | 0.217 | 0.36 | 0.373 | 0.343 | 0.299 | 0.474 | 0.433 | 0.459 | 0.518 | 0.515 | 0.074 | 0.0723 | 0.0728 | 0.0721 | 0.0571 | 0.554 | 0.637 | 0.638 | 0.674 | 0.634
CAL-12T | 0.327 | 0.249 | 0.258 | – | 0.196 | 0.586 | 0.508 | 0.41 | 0.525 | 0.522 | 1.29 | 1.47 | 1.15 | 1.19 | 1.45 | 0.654 | 0.757 | 0.618 | 0.636 | 0.485
COR-L23 | 0.567 | 0.458 | 0.386 | – | 0.38 | 0.322 | 0.297 | 0.323 | 0.303 | 0.331 | 0.948 | 0.983 | 1.15 | 1.07 | 1.15 | – | – | – | – | –
COR-L 105 | 0.315 | 0.292 | 0.323 | 0.243 | 0.323 | 0.456 | 0.434 | 0.38 | 0.438 | 0.37 | 1 | 0.828 | 0.795 | 0.65 | 1.07 | – | – | – | – | –
Calu-6 | – | – | – | – | – | – | – | – | – | – | 0.923 | 0.87 | 0.751 | 0.885 | 0.929 | – | – | – | – | –
ChaGo-K-1 | 0.641 | 0.594 | 0.614 | 0.509 | 0.497 | 0.88 | 0.947 | 0.972 | 0.863 | 1 | 1.07 | 0.779 | 1.13 | 0.921 | 0.895 | 0.838 | 0.976 | 0.919 | 0.907 | 0.958
